Assay type in all cases: biochemical
Assay [1] deals with T1, human N-terminally His6-tagged AspH315–758 (Homo sapiens, UniProt Q12797).
T1 sequence (Q12797 315-758): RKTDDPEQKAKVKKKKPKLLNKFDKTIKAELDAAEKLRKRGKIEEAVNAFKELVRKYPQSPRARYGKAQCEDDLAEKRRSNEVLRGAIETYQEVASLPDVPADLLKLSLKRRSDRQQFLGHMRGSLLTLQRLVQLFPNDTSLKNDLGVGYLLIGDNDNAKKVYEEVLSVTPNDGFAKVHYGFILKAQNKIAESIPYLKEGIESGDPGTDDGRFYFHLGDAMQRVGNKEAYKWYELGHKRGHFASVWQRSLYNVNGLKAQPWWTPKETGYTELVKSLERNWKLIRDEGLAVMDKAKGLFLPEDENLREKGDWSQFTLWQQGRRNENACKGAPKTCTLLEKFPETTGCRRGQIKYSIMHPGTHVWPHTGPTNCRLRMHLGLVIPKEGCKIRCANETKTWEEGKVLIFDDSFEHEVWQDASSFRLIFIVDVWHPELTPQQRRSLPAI
Description: SPE-MS inhibition assay, AspH (peptide hydroxylation). The following applies: 0.05 μM His6-AspH315–758, 1.0 μM hFX-CP101–119 peptide, n = 2, mean ± SD. As to the method:
(§1) KDM4E was used as a representative JmjC KDM; it catalyzes the demethylation of histone 3 (H3) N^ε-di- and trimethylated Lys9 (H3K9me3/me2), [11], [12].
(§2) 2OG oxygenases were produced and purified as described in the cited literature, the peptide substrate for AspH was synthesized according to the cited literature while the peptide substrates for FIH and KDM4E were obtained from GL Biochem (Shanghai) Ltd (Shanghai, China). All peptide were prepared with C-terminal amides.

For the next assay, the target named is T2, KDM4E (Homo sapiens, UniProt B2RXH2).
T2 sequence (B2RXH2 1-506): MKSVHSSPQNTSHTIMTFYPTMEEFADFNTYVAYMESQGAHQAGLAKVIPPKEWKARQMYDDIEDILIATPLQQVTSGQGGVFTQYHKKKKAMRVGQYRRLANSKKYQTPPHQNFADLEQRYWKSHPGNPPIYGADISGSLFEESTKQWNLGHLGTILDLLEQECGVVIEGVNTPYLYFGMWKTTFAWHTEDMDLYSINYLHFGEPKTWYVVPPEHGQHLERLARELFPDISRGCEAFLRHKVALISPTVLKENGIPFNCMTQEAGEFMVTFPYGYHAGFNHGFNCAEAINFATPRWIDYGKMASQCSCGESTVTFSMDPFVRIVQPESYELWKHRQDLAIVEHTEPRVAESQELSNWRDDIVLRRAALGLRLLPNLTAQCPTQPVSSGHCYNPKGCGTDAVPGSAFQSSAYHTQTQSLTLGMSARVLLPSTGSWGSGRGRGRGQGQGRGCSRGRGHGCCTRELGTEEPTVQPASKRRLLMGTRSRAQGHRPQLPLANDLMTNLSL
Description: SPE-MS inhibition assay, KDM4E (peptide demethylation). The following applies: 10.0 μM H3_1–15K9me3, n = 2, mean ± SD, inactive = no inhibition at 100 – 0.002 μM. As for the experimental part: as §1, §2

For assay [2], the target named is recombinant human N-terminally His6-tagged RIOX2_26–465 (Homo sapiens, UniProt Q8IUF8). Description: SPE-MS inhibition assay, RIOX2 (peptide hydroxylation). The following applies: n = 2, mean ± SD, inactive = no inhibition at 100 – 0.002 μM; for IC50: 0.15 μM His6-RIOX2_26–465, 5.0 μM RPL27A31–49 peptide; for IC50 RIOX2: […] His6-RIOX2_26–465, 5.0 μM RPL27A31–49 peptide.
Sequence of recombinant human N-terminally His6-tagged RIOX2_26–465 (Q8IUF8 26-465): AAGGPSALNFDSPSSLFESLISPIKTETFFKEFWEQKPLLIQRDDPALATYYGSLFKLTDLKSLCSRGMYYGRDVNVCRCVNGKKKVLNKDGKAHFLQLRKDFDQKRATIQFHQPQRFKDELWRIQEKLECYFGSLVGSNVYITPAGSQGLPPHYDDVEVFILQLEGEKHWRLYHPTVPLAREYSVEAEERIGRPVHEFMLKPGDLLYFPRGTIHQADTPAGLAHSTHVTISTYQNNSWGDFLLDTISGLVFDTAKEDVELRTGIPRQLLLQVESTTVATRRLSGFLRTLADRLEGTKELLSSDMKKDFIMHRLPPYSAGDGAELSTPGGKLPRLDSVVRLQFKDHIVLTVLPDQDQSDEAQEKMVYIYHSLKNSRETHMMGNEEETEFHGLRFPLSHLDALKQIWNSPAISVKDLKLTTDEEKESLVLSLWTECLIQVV

Assay [3] concerns the target T3, N-terminally His6-tagged FIH (Homo sapiens, UniProt Q9NWT6).
T3 construct: His6 (N); made in house
Description: SPE-MS inhibition assay, FIH (peptide hydroxylation). The conditions noted are these: 5.0 μM HIF-1α CAD (788–822), n = 2, mean ± SD, inactive = no inhibition at 100 – 0.002 μM. As for the experimental part:
as §1, §2

T3 sequence (Q9NWT6 whole entry): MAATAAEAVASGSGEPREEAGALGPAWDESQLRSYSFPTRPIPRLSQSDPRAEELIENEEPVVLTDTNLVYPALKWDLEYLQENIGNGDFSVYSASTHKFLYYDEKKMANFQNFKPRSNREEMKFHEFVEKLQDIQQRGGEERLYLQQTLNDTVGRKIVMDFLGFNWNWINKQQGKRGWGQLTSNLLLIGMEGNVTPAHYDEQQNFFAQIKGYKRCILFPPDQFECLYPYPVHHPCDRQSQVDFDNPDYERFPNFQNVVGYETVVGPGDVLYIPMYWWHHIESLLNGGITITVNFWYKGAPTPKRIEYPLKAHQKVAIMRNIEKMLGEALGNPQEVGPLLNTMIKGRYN

As for `O=C(O)c1ccnc(C(=O)O)c1` [2,4-PDCA, pyridine-2,4-dicarboxylate, reference compound], the IC50 (usually the concentration at which inhibition is half-maximal) in assay [1] is approximately 30 nM.
With `O=C(O)c1ccnc(C(=O)O)c1F` [compound 7, 3-Fluoropyridine-2,4-dicarboxylic acid], the IC50 on KDM4E is 1300 ± 200 nM; in assay [2], more than 50000 nM; in assay [1] it was 110 ± 10 nM; in assay [3], more than 50000 nM.
Consider `O=C(O)c1cc(C(=O)O)c(F)cn1` [compound 8, 5-Fluoropyridine-2,4-dicarboxylic acid], for which the half-inhibitory concentration (IC50) on KDM4E is 1600 ± 300 nM; in assay [2] it was more than 50000 nM; in assay [1], 50 ± 10 nM; in assay [3], more than 50000 nM.
In the case of `O=C(O)c1ccnc(C(=O)O)c1C(F)(F)F` [compound 13, 3-Trifluoromethylpyridine-2,4-dicarboxylic acid], at KDM4E, the “IC50 KDM4E” value was “^d)inactive”. Also, the “IC50 RIOX2” value in assay [2] was “^d)inactive”. In addition, in assay [1], the IC50 is more than 50000 nM. In addition, in assay [3], the “IC50 FIH” value is “^d)inactive”.
In the case of `O=C(O)c1cc(C(=O)O)c(C(F)(F)F)cn1` [compound 14, 5-Trifluoromethylpyridine-2,4-dicarboxylic acid], the “IC50 KDM4E” value at KDM4E was “^d)inactive”. In addition, in assay [2], the “IC50 RIOX2” value was “^d)inactive”. Also, in assay [1], half-maximal inhibition (IC50) was put at 4200 ± 1000 nM. The “IC50 FIH” value in assay [3] was “^d)inactive”.

These data come from paper PMC8223498 (Journal of Fluorine Chemistry, 2021).
